From patent US20230085307A1, “PYRIDAZINONE COMPOUND AND HERBICIDE” (NISSAN CHEMICAL CORPORATION, priority 2019, published 2023)

System: blackgrass
Assay: Test Example 5: herbicidal effect by foliage application, plastic box (Table 20, symbol J)
Assay type: in vivo, blackgrass (Alopecurus myosuroides)
Details: foliage application, AAH 320 g/ha, evaluated three weeks after application
In short: (§1)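 Plants sown in sterilized diluvial soil and grown 14 days in a greenhouse at 25° C to 30° C, then sprayed on the foliage with the compound's emulsion diluted in water to a predetermined herbicide amount. Injury to weeds and crops scored three weeks after application on a visual rating scale.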

Q: `Cc1nn(C)c(=O)c(-c2c(-c3ccc([S+]([O-])C(C)C)cc3)sc3ccc(F)cc23)c1O` (stereo not shown) [2-257] was tested. Which “J: blackgrass, herbicidal effect (criteria 0-5)” value did it give?
A: 4 (Herbicidal rate of 70% or more and less than 90%)

System: Japanese bulrush
Assay: Test Example 1: herbicidal activity, application before weed generation under submerged conditions (Table 16, symbol B)
Assay type: in vivo, Japanese bulrush (Schoenoplectus juncoides)
Details: 320 g/ha applied herbicide
In short: (§2)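 Alluvial soil was flooded to 4 cm depth, weed seeds were sown mixed and 2.5-leaf rice seedlings were transplanted. On sowing day, the compound's emulsion, diluted in water to a set dose, was applied to the water surface. Plants grew at 25–30 °C and were scored 0–5 after three weeks.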

Q: How did the “Herbicidal effect on B: Japanese bulrush (grade 0-5)” value turn out when `Cc1nn(C)c(=O)c(-c2c(-c3ccc([S+]([O-])C(C)C)cc3)sc3ccc(F)cc23)c1O` (stereo not shown) [2-257] was run?
A: 0 (Herbicidal rate of 5% or less (almost no effect))

System: southern crabgrass
Assay: Test Example 5: herbicidal effect by foliage application, plastic box (Table 20, symbol F)
Assay type: in vivo, southern crabgrass (Digitaria ciliaris)
Details: foliage application, AAH 320 g/ha, evaluated three weeks after application
In short: as §1

Q: How did the “F: southern crabgrass, herbicidal effect (criteria 0-5)” value turn out when `Cc1nn(C)c(=O)c(-c2c(-c3ccc([S+]([O-])C(C)C)cc3)sc3ccc(F)cc23)c1O` (stereo not shown) [2-257] was run?
A: 3 (Herbicidal rate of 40% or more and less than 70%)

System: barnyard grass
Assay: Test Example 5: herbicidal effect by foliage application, plastic box (Table 20, symbol H)
Assay type: in vivo, barnyard grass (Echinochloa crus-galli)
Details: foliage application, AAH 320 g/ha, evaluated three weeks after application
In short: as §1

Q: How did the “H: barnyard grass, herbicidal effect (criteria 0-5)” value turn out when `Cc1nn(C)c(=O)c(-c2c(-c3ccc([S+]([O-])C(C)C)cc3)sc3ccc(F)cc23)c1O` (stereo not shown) [2-257] was run?
A: 5 (Herbicidal rate of 90% or more (almost completely withered))

System: late watergrass
Assay: Test Example 1: herbicidal activity, application before weed generation under submerged conditions (Table 16, symbol A)
Assay type: in vivo, late watergrass (Echinochloa oryzicola)
Details: 320 g/ha applied herbicide
In short: as §2

Q: How did the “Herbicidal effect on A: late watergrass (grade 0-5)” value turn out when `Cc1nn(C)c(=O)c(-c2c(-c3ccc([S+]([O-])C(C)C)cc3)sc3ccc(F)cc23)c1O` (stereo not shown) [2-257] was run?
A: 1 (Herbicidal rate of 5% or more and less than 20%)

System: velvetleaf
Assay: Test Example 5: herbicidal effect by foliage application, plastic box (Table 20, symbol M)
Assay type: in vivo, velvetleaf (Abutilon theophrasti)
Details: foliage application, AAH 320 g/ha, evaluated three weeks after application
In short: as §1

Q: With `Cc1nn(C)c(=O)c(-c2c(-c3ccc([S+]([O-])C(C)C)cc3)sc3ccc(F)cc23)c1O` (stereo not shown) [2-257] as the compound, how does the “M: velvetleaf, herbicidal effect (criteria 0-5)” value read?
A: 5 (Herbicidal rate of 90% or more (almost completely withered))

System: windgrass
Assay: Test Example 4: herbicidal effect by soil treatment (Table 19, symbol L)
Assay type: in vivo, windgrass (Apera spica-venti)
Details: amount of applied herbicide 320 g/ha
In short: (§3)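 Three weeks of greenhouse growth at 25° C. to 30° C. followed a uniform surface spray of water-diluted emulsion at a predetermined herbicide amount. Seeds had been sown beforehand under about 1.5 cm of sterilized diluvial soil. Grading followed criteria set out in an earlier test.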

Q: How did the “herbicidal effect on L: windgrass” value turn out when `Cc1nn(C)c(=O)c(-c2c(-c3ccc([S+]([O-])C(C)C)cc3)sc3ccc(F)cc23)c1O` (stereo not shown) [2-257] was run?
A: 0 (Herbicidal rate of 5% or less (almost no effect))

System: persian speedwell
Assay: Test Example 4: herbicidal effect by soil treatment (Table 19, symbol R)
Assay type: in vivo, Persian speedwell (Veronica persica)
Details: amount of applied herbicide 320 g/ha
In short: as §3

Q: `Cc1nn(C)c(=O)c(-c2c(-c3ccc([S+]([O-])C(C)C)cc3)sc3ccc(F)cc23)c1O` (stereo not shown) [2-257] was tested. Which “herbicidal effect on R: persian speedwell” value did it give?
A: 5 (Herbicidal rate of 90% or more (almost completely withered))

System: chickweed
Assay: Test Example 4: herbicidal effect by soil treatment (Table 19, symbol P)
Assay type: in vivo, common chickweed (Stellaria media)
Details: amount of applied herbicide 320 g/ha
In short: as §3

Q: With `Cc1nn(C)c(=O)c(-c2c(-c3ccc([S+]([O-])C(C)C)cc3)sc3ccc(F)cc23)c1O` (stereo not shown) [2-257] as the compound, how does the “herbicidal effect on P: chickweed” value read?
A: 4 (Herbicidal rate of 70% or more and less than 90%)

System: barnyard grass
Assay: Test Example 3: herbicidal effect by foliage application, Wagner pot (Table 18, symbol H)
Assay type: in vivo, barnyard grass (Echinochloa crus-galli)
Details: amount of applied herbicide 320 g/ha
In short: (§4)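 Plants were sown in alluvial soil held under 0.1–0.5 cm standing water and grown 14 days in a greenhouse at 25–30 °C. An emulsifiable formulation, water-diluted to the set dose, was then sprayed onto the foliage, and effects were scored three weeks later using previously defined criteria.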

Q: For `Cc1nn(C)c(=O)c(-c2c(-c3ccc([S+]([O-])C(C)C)cc3)sc3ccc(F)cc23)c1O` (stereo not shown) [2-257], which “herbicidal effect on H: barnyard grass” value is on record?
A: 5 (Herbicidal rate of 90% or more (almost completely withered))

System: oval-leafed pondweed
Assay: Test Example 1: herbicidal activity, application before weed generation under submerged conditions (Table 16, symbol C)
Assay type: in vivo, oval-leafed pondweed (Monochoria vaginalis)
Details: 320 g/ha applied herbicide
In short: as §2

Q: How did the “Herbicidal effect on C: oval-leafed pondweed (grade 0-5)” value turn out when `Cc1nn(C)c(=O)c(-c2c(-c3ccc([S+]([O-])C(C)C)cc3)sc3ccc(F)cc23)c1O` (stereo not shown) [2-257] was run?
A: 2 (Herbicidal rate of 20% or more and less than 40%)

System: rice flat sedge
Assay: Test Example 3: herbicidal effect by foliage application, Wagner pot (Table 18, symbol E)
Assay type: in vivo, rice flat sedge (Cyperus iria)
Details: amount of applied herbicide 320 g/ha
In short: as §4

Q: How did the “herbicidal effect on E: rice flat sedge” value turn out when `Cc1nn(C)c(=O)c(-c2c(-c3ccc([S+]([O-])C(C)C)cc3)sc3ccc(F)cc23)c1O` (stereo not shown) [2-257] was run?
A: 5 (Herbicidal rate of 90% or more (almost completely withered))

System: Italian ryegrass
Assay: Test Example 4: herbicidal effect by soil treatment (Table 19, symbol K)
Assay type: in vivo, Italian ryegrass (Lolium multiflorum)
Details: amount of applied herbicide 320 g/ha
In short: as §3

Q: Which “herbicidal effect on K: Italian ryegrass” value does the source give for `Cc1nn(C)c(=O)c(-c2c(-c3ccc([S+]([O-])C(C)C)cc3)sc3ccc(F)cc23)c1O` (stereo not shown) [2-257] here?
A: 3 (Herbicidal rate of 40% or more and less than 70%)

System: windgrass
Assay: Test Example 5: herbicidal effect by foliage application, plastic box (Table 20, symbol L)
Assay type: in vivo, windgrass (Apera spica-venti)
Details: foliage application, AAH 320 g/ha, evaluated three weeks after application
In short: as §1

Q: Which “L: windgrass, herbicidal effect (criteria 0-5)” value does the source give for `Cc1nn(C)c(=O)c(-c2c(-c3ccc([S+]([O-])C(C)C)cc3)sc3ccc(F)cc23)c1O` (stereo not shown) [2-257] here?
A: 5 (Herbicidal rate of 90% or more (almost completely withered))

System: redroot pigweed
Assay: Test Example 5: herbicidal effect by foliage application, plastic box (Table 20, symbol N)
Assay type: in vivo, redroot pigweed (Amaranthus retroflexus)
Details: foliage application, AAH 320 g/ha, evaluated three weeks after application
In short: as §1

Q: How did the “N: redroot pigweed, herbicidal effect (criteria 0-5)” value turn out when `Cc1nn(C)c(=O)c(-c2c(-c3ccc([S+]([O-])C(C)C)cc3)sc3ccc(F)cc23)c1O` (stereo not shown) [2-257] was run?
A: 5 (Herbicidal rate of 90% or more (almost completely withered))

System: wild oat
Assay: Test Example 5: herbicidal effect by foliage application, plastic box (Table 20, symbol I)
Assay type: in vivo, wild oat (Avena fatua)
Details: foliage application, AAH 320 g/ha, evaluated three weeks after application
In short: as §1

Q: Which “I: wild oat, herbicidal effect (criteria 0-5)” value does the source give for `Cc1nn(C)c(=O)c(-c2c(-c3ccc([S+]([O-])C(C)C)cc3)sc3ccc(F)cc23)c1O` (stereo not shown) [2-257] here?
A: 5 (Herbicidal rate of 90% or more (almost completely withered))

System: chickweed
Assay: Test Example 5: herbicidal effect by foliage application, plastic box (Table 20, symbol P)
Assay type: in vivo, common chickweed (Stellaria media)
Details: foliage application, AAH 320 g/ha, evaluated three weeks after application
In short: as §1

Q: With `Cc1nn(C)c(=O)c(-c2c(-c3ccc([S+]([O-])C(C)C)cc3)sc3ccc(F)cc23)c1O` (stereo not shown) [2-257] as the compound, how does the “P: chickweed, herbicidal effect (criteria 0-5)” value read?
A: 5 (Herbicidal rate of 90% or more (almost completely withered))

System: Chinese sprangletop
Assay: Test Example 3: herbicidal effect by foliage application, Wagner pot (Table 18, symbol D)
Assay type: in vivo, chinese sprangletop (Leptochloa chinensis)
Details: amount of applied herbicide 320 g/ha
In short: as §4

Q: For `Cc1nn(C)c(=O)c(-c2c(-c3ccc([S+]([O-])C(C)C)cc3)sc3ccc(F)cc23)c1O` (stereo not shown) [2-257], which “herbicidal effect on D: Chinese sprangletop” value is on record?
A: 3 (Herbicidal rate of 40% or more and less than 70%)

System: lambsquarters
Assay: Test Example 4: herbicidal effect by soil treatment (Table 19, symbol O)
Assay type: in vivo, lambsquarters (Chenopodium album)
Details: amount of applied herbicide 320 g/ha
In short: as §3

Q: `Cc1nn(C)c(=O)c(-c2c(-c3ccc([S+]([O-])C(C)C)cc3)sc3ccc(F)cc23)c1O` (stereo not shown) [2-257] was tested. Which “herbicidal effect on O: lambsquarters” value did it give?
A: 5 (Herbicidal rate of 90% or more (almost completely withered))
